Measured values taken from ChEMBL document CHEMBL3046001, “4-Thiazolidinone and 1-thia-3,4,9-triaza fluorene conjugates: synthesis, characterization and antimicrobial screening” (2013).
≈ marks a conversion by molar mass, not a printed value.

Assays:
Type in all cases: functional
[1] = test system: Penicillium chrysogenum; assay: Antifungal activity against Penicillium chrysogenum MTCC 161 assessed as growth inhibition after 24 hr by tube dilution method; details: MTCC 161, 24 h
[2] = test system: Aspergillus niger; assay: Antifungal activity against Aspergillus niger MTCC 2546 assessed as growth inhibition at 10 ug/mL after 48 hr by agar diffusion method; details: MTCC 2546, 48 h, read-out: DIZ
[3] = test system: Penicillium chrysogenum; assay: Antifungal activity against Penicillium chrysogenum MTCC 161 assessed as growth inhibition at 10 ug/mL after 48 hr by agar diffusion method; details: MTCC 161, 48 h, read-out: DIZ
[4] = test system: Aspergillus niger; assay: Antifungal activity against Aspergillus niger MTCC 2546 assessed as growth inhibition after 24 hr by tube dilution method; details: MTCC 2546, 24 h
[5] = test system: Bacillus pumilus; assay: Antibacterial activity against Bacillus pumilus MTCC 1456 assessed as growth inhibition after 24 hr by tube dilution method; details: MTCC 1456, 24 h
[6] = test system: Pseudomonas aeruginosa; assay: Antibacterial activity against Pseudomonas aeruginosa MTCC 424 assessed as growth inhibition at 10 ug/mL after 48 hr by agar diffusion method; details: MTCC 424, 48 h, read-out: DIZ
[7] = test system: Escherichia coli; assay: Antibacterial activity against Escherichia coli MTCC 1573 assessed as growth inhibition at 10 ug/mL after 48 hr by agar diffusion method; details: MTCC 1573, 48 h, read-out: DIZ
[8] = test system: Micrococcus luteus; assay: Antibacterial activity against Micrococcus luteus MTCC 1538 assessed as growth inhibition after 24 hr by tube dilution method; details: MTCC 1538, 24 h
[9] = test system: Bacillus pumilus; assay: Antibacterial activity against Bacillus pumilus MTCC 1456 assessed as growth inhibition at 10 ug/mL after 48 hr by agar diffusion method; details: MTCC 1456, 48 h, read-out: DIZ
[10] = test system: Staphylococcus aureus; assay: Antibacterial activity against Staphylococcus aureus MTCC 1430 assessed as growth inhibition after 24 hr by tube dilution method; details: MTCC 1430, 24 h
[11] = test system: Pseudomonas fluorescens; assay: Antibacterial activity against Pseudomonas fluorescens MTCC 2421 assessed as growth inhibition after 24 hr by tube dilution method; details: MTCC 2421, 24 h
[12] = test system: Pseudomonas fluorescens; assay: Antibacterial activity against Pseudomonas fluorescens MTCC 2421 assessed as growth inhibition at 10 ug/mL after 48 hr by agar diffusion method; details: MTCC 2421, 48 h, read-out: DIZ
[13] = test system: Bacillus subtilis; assay: Antibacterial activity against Bacillus subtilis MTCC 441 assessed as growth inhibition at 10 ug/mL after 48 hr by agar diffusion method; details: MTCC 441, 48 h, read-out: DIZ
[14] = test system: Bacillus subtilis; assay: Antibacterial activity against Bacillus subtilis MTCC 441 assessed as growth inhibition after 24 hr by tube dilution method; details: MTCC 441, 24 h
[15] = test system: Micrococcus luteus; assay: Antibacterial activity against Micrococcus luteus MTCC 1538 assessed as growth inhibition at 10 ug/mL after 48 hr by agar diffusion method; details: MTCC 1538, 48 h, read-out: DIZ
[16] = test system: Staphylococcus aureus; assay: Antibacterial activity against Staphylococcus aureus MTCC 1430 assessed as growth inhibition at 10 ug/mL after 48 hr by agar diffusion method; details: MTCC 1430, 48 h, read-out: DIZ
[17] = test system: Pseudomonas aeruginosa; assay: Antibacterial activity against Pseudomonas aeruginosa MTCC 424 assessed as growth inhibition after 24 hr by tube dilution method; details: MTCC 424, 24 h

Structure (SMILES) | MIC [1] [mg/L] | zone of inhibition at 10 µg/mL [2] [mm] | zone of inhibition at 10 µg/mL [3] [mm] | MIC [4] [mg/L] | MIC [5] [mg/L] | zone of inhibition at 10 µg/mL [6] [mm] | zone of inhibition at 10 µg/mL [7] [mm] | MIC [8] [mg/L] | zone of inhibition at 10 µg/mL [9] [mm] | MIC [10] [mg/L] | MIC [11] [mg/L] | zone of inhibition at 10 µg/mL [12] [mm] | zone of inhibition at 10 µg/mL [13] [mm] | MIC [14] [mg/L] | zone of inhibition at 10 µg/mL [15] [mm] | zone of inhibition at 10 µg/mL [16] [mm] | MIC [17] [mg/L]
OC(Cn1cncn1)(Cn1cncn1)c1ccc(F)cc1F [FLUCONAZOLE] | 1.25 (≈ 4.08 µM) | 22 | 23 | 2.5 (≈ 8.16 µM) | – | – | – | – | – | – | – | – | – | – | – | – | –
CCn1cc(C(=O)O)c(=O)c2cc(F)c(N3CCNCC3)cc21 [NORFLOXACIN] | – | – | – | – | 1.25 (≈ 3.91 µM) | 26 | 25 | 2.5 (≈ 7.83 µM) | 30 | 5 (≈ 15.7 µM) | 2.5 (≈ 7.83 µM) | 27 | 25 | 2.5 (≈ 7.83 µM) | 24 | 22 | 2.5 (≈ 7.83 µM)
